In article PMC11776485 (Virulence, 2025):

Target: T1, MoOxdC (Pyricularia oryzae, UniProt G4NLF1)
T1 construct: gene MGG_14061
Conditions: 50 mM citrate pH 4.0, 37 °C, 30 min; 0.2 mL of 8 mM oxalic acid in 1.5 mL; no added metal

T1 sequence (G4NLF1 1-500 limits assumed): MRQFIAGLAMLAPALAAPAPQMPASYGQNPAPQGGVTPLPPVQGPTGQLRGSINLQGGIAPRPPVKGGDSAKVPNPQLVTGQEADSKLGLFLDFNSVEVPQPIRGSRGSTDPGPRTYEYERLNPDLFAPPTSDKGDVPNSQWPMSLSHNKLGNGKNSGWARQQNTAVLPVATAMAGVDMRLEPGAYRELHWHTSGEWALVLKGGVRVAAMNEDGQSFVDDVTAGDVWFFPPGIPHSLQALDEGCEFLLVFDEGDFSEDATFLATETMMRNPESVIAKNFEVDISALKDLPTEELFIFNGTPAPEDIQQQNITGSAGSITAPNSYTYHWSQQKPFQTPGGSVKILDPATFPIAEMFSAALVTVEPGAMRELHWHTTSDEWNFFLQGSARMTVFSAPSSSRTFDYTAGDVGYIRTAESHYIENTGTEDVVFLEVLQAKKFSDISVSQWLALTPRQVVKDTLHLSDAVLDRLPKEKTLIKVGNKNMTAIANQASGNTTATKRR

SMILES: O=C(O)C(=O)O [oxalic acid]
- residual oxalic acid by Fe(III)-sulfosalicylate absorbance at 510 nm; formic aci: The oxalate decarboxylase activity of the purified recombinant MoOxdC protein was analyzed.
